Experiments:
Format in all cases: in vivo, human
[1] = test system: subjects with moderate-to-severe plaque psoriasis; assay: BSA, Example 1; settings: each dose group vs placebo; Week 16
Source text: Subjects suitable for the method of the present invention satisfy one or more criteria for inclusion, as described below. In some embodiments, the present invention relates to the method and/or use, where the subject has a psoriasis effected Body Surface Area (BSA) of at least 10% before the start of treatment. Herein the term BSA will mean the measure of the percentage of total area of your body affected by psoriasis.
Clinician-reported outcomes including Psoriasis Area and Severity Index (PASI), Body Surface Area (BSA), Investigator's Global Assessment (IGA), Nail Psoriasis Area and Severity Index (NAPSI), Fingernail Physician's Global Assessment (f-PGA), Static Physician's Global Assessment of Genitalia (s-PGA-G), Physician's Global Assessment of Hands and/or Feet (hf-PGA), and Scalp Specific Investigator Global Assessment (ss-IGA) were obtained at Week 0, 8, and 16. PASI and IGA were also obtained at Weeks 1, 2, 4, and 12, and at Week 20, four weeks after the administration of the tablets has stopped.

[2] = test system: subjects with moderate-to-severe plaque psoriasis; assay: Elevated liver function tests; settings: through Week 56
[3] = test system: IL-17A; assay: Serum IL-17A immunoassay; settings: all treatment groups relative to placebo
Method: To evaluate psoriasis relevant systemic biomarkers (Beta-defensin 2 (BD-2), IL-17A, IL-17F, and IL-22), protein concentrations were measured in serum using validated immunoassays. The IL-17A (Catalog #03-0159-00) and IL-17F (Catalog #03-0164-00) assays used are commercially available SMC™-based high sensitivity immunoassays produced by the EMD Millipore Corporation. The manufacturer's protocols were followed and analyzed on the Erenna® instrument platform except for the use of 11 μL Elution Buffer B. While the IL-22 assay is also based on the SMC™ platform and run on the Erenna instrument, the assay was developed internally as a coated plate-based assay. The development and optimization of the BD-2 assay was done on the Meso Scale Discovery on the electrochemiluminescence-based platform, a division of Meso Scale Diagnostics LLC (MSD). For all assays, concentration adjustments were made to values measuring below empirically defined LLOQ or empirically defined ULOQ values. Assay QC verified performance of generated standard curves (average concentration recovery & CV of technical replicates) and control samples (inter-assay plate agreement (CV)).
Serum levels of psoriasis disease biomarkers BD-2, IL-22, IL-17A, and IL-17F relative to baseline were analyzed in patients who received placebo or the compound of Formula (I) and compared to clinical response. […]

[4] = 25 mg BID, at least 1 post-baseline value
[5] = 25 mg BID, baseline ≤ULN and at least 1 post-baseline value
[6] = 25 mg QD, at least 1 post-baseline value
[7] = 25 mg QD, baseline ≤ULN and at least 1 post-baseline value
[8] = 50 mg QD, at least 1 post-baseline value
[9] = 50 mg QD, baseline ≤ULN and at least 1 post-baseline value
[10] = 100 mg BID, at least 1 post-baseline value
[11] = 100 mg BID, baseline ≤ULN and at least 1 post-baseline value
[12] = 100 mg QD, at least 1 post-baseline value
[13] = 100 mg QD, baseline ≤ULN and at least 1 post-baseline value
[14] = Combined, at least 1 post-baseline value
[15] = Combined, baseline ≤ULN and at least 1 post-baseline value
[16] = Placebo → 100 mg QD, at least 1 post-baseline value
[17] = Placebo → 100 mg QD, baseline ≤ULN and at least 1 post-baseline value

CC(=O)NCCCC[C@@H]1NC(=O)[C@H](Cc2c[nH]c3c(C)cccc23)NC(=O)[C@H]([C@@H](C)O)NC(=O)[C@H](CC(N)=O)NC(=O)[C@@H](NC(C)=O)C(C)(C)SSC(C)(C)[C@@H](C(=O)N[C@@H](Cc2ccc(OCCN)cc2)C(=O)N[C@@H](Cc2ccc3ccccc3c2)C(=O)NC2(C(=O)N[C@@H](CCC(=O)O)C(=O)N[C@@H](CC(N)=O)C(=O)N[C@@H](Cc3cccnc3)C(=O)N(C)CC(N)=O)CCOCC2)NC1=O [IL-23 receptor antagonist peptide, Ac-[Pen]*-N-T-[W(7-Me)]-[Lys(Ac)]-[Pen]*-Phe[4-(2-aminoethoxy)]-[2-Nal]-[THP]-E-N-[3-Pal]-Sarc-NH2 (*[Pen]-[Pen]* formdisulfidebond)]
Improvement (reduction) in BSA from baseline [1]: significantly greater improvement
Subjects with Total Bilirubin >2 × ULN and either AST or ALT ≥3 × ULN at the same timepoint ([2]; 25 mg BID): 0
Subjects with ALT ≥5 × ULN [2, 4]: 0
Subjects with ALT ≥10 × ULN [2, 4]: 0
Subjects with ALT ≥20 × ULN [2, 4]: 0
Subjects with AST ≥5 × ULN [2, 4]: 0
Subjects with AST ≥10 × ULN [2, 4]: 0
Subjects with AST ≥20 × ULN [2, 4]: 0
Subjects with ALT ≥5 × ULN [2, 5]: 0
Subjects with ALT ≥10 × ULN [2, 5]: 0
Subjects with ALT ≥20 × ULN [2, 5]: 0
Subjects with AST ≥5 × ULN [2, 5]: 0
Subjects with AST ≥10 × ULN [2, 5]: 0
Subjects with AST ≥20 × ULN [2, 5]: 0
Subjects with Total Bilirubin >2 × ULN and either AST or ALT ≥3 × ULN at the same timepoint ([2]; 25 mg QD): 0
Subjects with ALT >1 × ULN [2, 6]: 7
Subjects with ALT ≥10 × ULN [2, 6]: 0
Subjects with ALT ≥20 × ULN [2, 6]: 0
Subjects with AST ≥5 × ULN [2, 6]: 0
Subjects with AST ≥10 × ULN [2, 6]: 0
Subjects with AST ≥20 × ULN [2, 6]: 0
Subjects with ALT ≥10 × ULN [2, 7]: 0
Subjects with ALT ≥20 × ULN [2, 7]: 0
Subjects with AST ≥5 × ULN [2, 7]: 0
Subjects with AST ≥10 × ULN [2, 7]: 0
Subjects with AST ≥20 × ULN [2, 7]: 0
Subjects with Total Bilirubin >2 × ULN and either AST or ALT ≥3 × ULN at the same timepoint ([2]; 50 mg QD): 0
Subjects with ALT ≥3 × ULN [2, 8]: 0
Subjects with ALT ≥5 × ULN [2, 8]: 0
Subjects with ALT ≥10 × ULN [2, 8]: 0
Subjects with ALT ≥20 × ULN [2, 8]: 0
Subjects with AST ≥3 × ULN [2, 8]: 0
Subjects with AST ≥5 × ULN [2, 8]: 0
Subjects with AST ≥10 × ULN [2, 8]: 0
Subjects with AST ≥20 × ULN [2, 8]: 0
Subjects with ALT ≥3 × ULN [2, 9]: 0
Subjects with ALT ≥5 × ULN [2, 9]: 0
Subjects with ALT ≥10 × ULN [2, 9]: 0
Subjects with ALT ≥20 × ULN [2, 9]: 0
Subjects with AST ≥3 × ULN [2, 9]: 0
Subjects with AST ≥5 × ULN [2, 9]: 0
Subjects with AST ≥10 × ULN [2, 9]: 0
Subjects with AST ≥20 × ULN [2, 9]: 0
Subjects with Total Bilirubin >2 × ULN and either AST or ALT ≥3 × ULN at the same timepoint ([2]; 100 mg BID): 0
Subjects with ALT ≥3 × ULN [2, 10]: 5
Subjects with ALT ≥5 × ULN [2, 10]: 0
Subjects with ALT ≥10 × ULN [2, 10]: 0
Subjects with ALT ≥20 × ULN [2, 10]: 0
Subjects with AST ≥10 × ULN [2, 10]: 0
Subjects with AST ≥20 × ULN [2, 10]: 0
Subjects with ALT ≥5 × ULN [2, 11]: 0
Subjects with ALT ≥10 × ULN [2, 11]: 0
Subjects with ALT ≥20 × ULN [2, 11]: 0
Subjects with AST >1 × ULN [2, 11]: 4
Subjects with AST ≥10 × ULN [2, 11]: 0
Subjects with AST ≥20 × ULN [2, 11]: 0
Subjects with Total Bilirubin >2 × ULN and either AST or ALT ≥3 × ULN at the same timepoint ([2]; 100 mg QD): 0
Subjects with ALT ≥5 × ULN [2, 12]: 0
Subjects with ALT ≥10 × ULN [2, 12]: 0
Subjects with ALT ≥20 × ULN [2, 12]: 0
Subjects with AST >1 × ULN [2, 12]: 9
Subjects with AST ≥5 × ULN [2, 12]: 0
Subjects with AST ≥10 × ULN [2, 12]: 0
Subjects with AST ≥20 × ULN [2, 12]: 0
Subjects with ALT ≥5 × ULN [2, 13]: 0
Subjects with ALT ≥10 × ULN [2, 13]: 0
Subjects with ALT ≥20 × ULN [2, 13]: 0
Subjects with AST ≥5 × ULN [2, 13]: 0
Subjects with AST ≥10 × ULN [2, 13]: 0
Subjects with AST ≥20 × ULN [2, 13]: 0
Subjects with Total Bilirubin >2 × ULN and either AST or ALT ≥3 × ULN at the same timepoint ([2]; Combined): 0
Subjects with ALT ≥10 × ULN [2, 14]: 0
Subjects with ALT ≥20 × ULN [2, 14]: 0
Subjects with AST ≥10 × ULN [2, 14]: 0
Subjects with AST ≥20 × ULN [2, 14]: 0
Subjects with ALT ≥10 × ULN [2, 15]: 0
Subjects with ALT ≥20 × ULN [2, 15]: 0
Subjects with AST ≥10 × ULN [2, 15]: 0
Subjects with AST ≥20 × ULN [2, 15]: 0
Subjects with Total Bilirubin >2 × ULN and either AST or ALT ≥3 × ULN at the same timepoint ([2]; Placebo → 100 mg QD): 0
Subjects with ALT ≥5 × ULN [2, 16]: 0
Subjects with ALT ≥10 × ULN [2, 16]: 0
Subjects with ALT ≥20 × ULN [2, 16]: 0
Subjects with AST ≥10 × ULN [2, 16]: 0
Subjects with AST ≥20 × ULN [2, 16]: 0
Subjects with ALT ≥5 × ULN [2, 17]: 0
Subjects with ALT ≥10 × ULN [2, 17]: 0
Subjects with ALT ≥20 × ULN [2, 17]: 0
Subjects with AST ≥10 × ULN [2, 17]: 0
Subjects with AST ≥20 × ULN [2, 17]: 0
IL-17A serum levels [3]: Statistically significant reductions

Source: patent US20260232767A1, “INTERLEUKIN-23 RECEPTOR ANTAGONIST PEPTIDES FOR USE IN THE TREATMENT OF PSORIASIS” (Janssen Pharmaceutica NV, priority 2023, published 2026)
